In PubChem BioAssay AID2060904 (Molecular Pharmacology Branch, DTP, NCI, 2025):
pIC50: −log10 of the molar value.

Tested on: 349418-098-R-PDC complex spheroid viability
Experiment: Anticancer human tumor 349418-098-R-PDC patient-derived lung adenocarcinoma cell line growth inhibition [RAS]
Details: for pIC50: curve of first compound; for viability, T/C: stronger effect = lower value
Excerpt: RAS pathway inhibitors in Combinations in Complex Spheroids
A high-throughput screen of multi-cell type tumor spheroids was designed to identify active combinations of RAS pathway inhibitors and targeted small molecules. Complex spheroids include a stromal component modeled by human endothelial cells (HUVEC) and fibroblasts modeled by human mesenchymal stem cells (MSCs). The concentration ranges selected for each drug and investigational agent were based upon clinically achievable concentrations if the clinical Cmax of the agent was known.
Compounds. The drugs and investigational agents: abemaciclib (NSC768073), cobimetinib (NSC768068), divarasib (GDC6063, NSC841802), docetaxel (NSC628503), GDC-1971 (RLY-1971, NSC841576), gemcitabine (NSC613327), inavolisib (NSC800729), ipatasertib (NSC767898), KB-0742 (NSC834161), MRTX-1133 (NSC836407), osimertinib (NSC779217), RMC-4630 (NSC839698), RMC-6236 (NSC851965), RMC-6291 (NSC852671), Ro-3306 (NSC812927), sapanisertib (NSC764658), SN-38 (NSC673596), staurosporine (NSC755774), SY5609 (NSC837396), and tovorafenib (DAY101, NSC766906), were obtained from the National Cancer Institute (NCI) Developmental Therapeutics Program Chemical Repository. The FDA-approved anticancer drug set is available from the NCI Developmental Therapeutics Program. […] The stock solutions were prepared in dimethyl sulfoxide (DMSO, Sigma-Aldrich, St. Louis, MO, cat. D2650) at 800-fold the tested concentration and stored at -70 degrees C prior to their use. All drugs and investigational agents were tested over a range starting from a high concentration at or near the clinical Cmax and decreasing in half-log increments. If the clinical Cmax for an agent had not been determined, the highest concentration tested was 10 microM.
Cell Culture. All cells were maintained in an incubator at 37 degrees C and 5% CO2 with 95% humidity. The PDC lines were cultured according to standard operating procedures established by the NCI PDMR. All PDCs were thawed and cultured in Matrigel-coated flasks prepared with a working solution of 1X Ham's F-12 nutrient mix, without supplementation (Invitrogen, Waltham, MA, cat. 11765054), 100 U/mL penicillin-streptomycin (Invitrogen, cat. 15140122), and 2.5% Matrigel (Corning Inc., Corning, NY, cat. 354248) for the first three passages. The 362531-283-R-J2-PDC and 782815-120-R-J1-PDC lines were cultured in 6C/Colon 1B media, which includes advanced DMEM/F-12 (Thermo Fisher Scientific, cat. 12634028), 10 mM HEPES (Thermo Fisher Scientific, cat. 15630080), 1X GlutaMAX supplement (Thermo Fisher Scientific, cat. 35050061), 0.1 mg/mL primocin (InvivoGen, San Diego, CA, cat. ant-pm-2), 10% defined fetal bovine serum, heat inactivated (HyClone Laboratories Inc., Logan, UT, cat. SH30070.03HI), 50% L-WRN conditioned media (ATCC, cat. CRL-3276), 1.25 mM N-Acetyl-L-cysteine (Sigma-Aldrich, cat. A9165), 10 mM nicotinamide (Sigma-Aldrich, cat. N0636), 1X B-27 supplement (Thermo Fisher Scientific, cat. 17504044), 1X N-2 supplement (Thermo Fisher Scientific, cat. 17502048), 50 ng/mL human EGF (Thermo Fisher Scientific, cat. PHG0311), and 10 microM Y-27632 dihydrochloride (Tocris Bioscience, cat. 1254). The K12877-001-R-J1-PDC line was cultured in 6I media, which includes all 6C/Colon 1B media plus 10 ng/mL human FGF-10 (PeproTech, cat. 100-26), 1 ng/mL human FGF-2 (PeproTech, cat. 100-18B), 1 µM prostaglandin E2 (Tocris Bioscience, cat. 2296), […] hydrocortisone (Sigma-Aldrich, cat. H4001), and […] bovine insulin (Sigma-Aldrich, cat. I6634). The K86415-001-R-J1-PDC line was cultured in 6D media, which includes all 6C/Colon 1B media components minus the L-WRN conditioned media. The 485176-168-R4-J1-PDC was cultured in PANC media, which includes all 6C/Colon 1B media plus 100 ng/mL human FGF-10 (PeproTech, cat. 100-26), 500 nM SB-431542 (Selleckchem, cat. S1067), and 10 nM gastrin (Tocris Bioscience, cat. 3006). […]

[1] = second compound 0.0316 µM, first compound 0.0316 µM
[2] = second compound 0.0316 µM, first compound 0.1 µM
[3] = second compound 0.0316 µM, first compound 0.316 µM
[4] = second compound 0.0316 µM, first compound 1 µM
[5] = second compound 0.1 µM, first compound 0.0316 µM
[6] = second compound 0.1 µM, first compound 0.1 µM
[7] = second compound 0.1 µM, first compound 0.316 µM
[8] = second compound 0.1 µM, first compound 1 µM
[9] = second compound 0.316 µM, first compound 0.0316 µM
[10] = second compound 0.316 µM, first compound 0.1 µM
[11] = second compound 0.316 µM, first compound 0.316 µM
[12] = second compound 0.316 µM, first compound 1 µM
[13] = second compound 1 µM, first compound 0.0316 µM
[14] = second compound 1 µM, first compound 0.1 µM
[15] = second compound 1 µM, first compound 0.316 µM
[16] = second compound 1 µM, first compound 1 µM
[17] = second compound 3.16 µM, first compound 0.0316 µM
[18] = second compound 3.16 µM, first compound 0.1 µM
[19] = second compound 3.16 µM, first compound 0.316 µM
[20] = second compound 3.16 µM, first compound 1 µM
[21] = second compound 10 µM, first compound 0.0316 µM
[22] = second compound 10 µM, first compound 0.1 µM
[23] = second compound 10 µM, first compound 0.316 µM
[24] = second compound 10 µM, first compound 1 µM
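Also: spheroids exposed to compound for seven days before viability readout.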

For CC1(O)CCCC1n1c(=O)c(C(F)F)cc2cnc(NC3CCN(S(C)(=O)=O)CC3)nc21 (centres undefined) + C#Cc1c(F)ccc2cc(O)cc(-c3ncc4c(N5CC6CCC(C5)N6)nc(OCC56CCCN5CC(F)C6)nc4c3F)c12, the pIC50 (second compound 0.0316 µM) was 7.18, the pIC50 (second compound 0.1 µM) was 7.09 and the pIC50 (second compound 0.316 µM) was 7.06. The pIC50 (second compound 1 µM) was 7.28, the pIC50 (second compound 3.16 µM) was 7.10 and the pIC50 (second compound 10 µM) was > 7.50. It also gave a viability, T/C [1] of 62.5%, a viability, T/C [2] of 43.8% and a viability, T/C [3] of 23%. The viability, T/C [4] was 27.6%, the viability, T/C (second compound 0.0316 µM, first compound 3.16 µM) was 23.2% and the viability, T/C (second compound 0.0316 µM, first compound 10 µM) was 3.27%. For the same compound, the viability, T/C [5] was 83.5%, the viability, T/C [6] was 41.3% and the viability, T/C [7] was 23.1%. For the same compound, the viability, T/C [8] was 16.2%, the viability, T/C (second compound 0.1 µM, first compound 3.16 µM) was 18.7% and the viability, T/C (second compound 0.1 µM, first compound 10 µM) was 3.67%. For the same compound, the viability, T/C [9] was 84.5%, the viability, T/C [10] was 41.7% and the viability, T/C [11] was 25.2%. It also gave a viability, T/C [12] of 25.8%, a viability, T/C (second compound 0.316 µM, first compound 3.16 µM) of 20.1% and a viability, T/C (second compound 0.316 µM, first compound 10 µM) of 3.12%. The viability, T/C [13] was 60.5%, the viability, T/C [14] was 35.9% and the viability, T/C [15] was 28.9%. It also gave a viability, T/C [16] of 26.5%, a viability, T/C (second compound 1 µM, first compound 3.16 µM) of 19.9% and a viability, T/C (second compound 1 µM, first compound 10 µM) of 4.34%. For the same compound, the viability, T/C [17] was 67.6%, the viability, T/C [18] was 41.9% and the viability, T/C [19] was 29.9%. For the same compound, the viability, T/C [20] was 25%, the viability, T/C (second compound 3.16 µM, first compound 3.16 µM) was 25.5% and the viability, T/C (second compound 3.16 µM, first compound 10 µM) was 4.16%. It also gave a viability, T/C [21] of 49.8%, a viability, T/C [22] of 12.9% and a viability, T/C [23] of 16.3%. It also gave a viability, T/C [24] of 14.4%, a viability, T/C (second compound 10 µM, first compound 3.16 µM) of 9.5% and a viability, T/C (second compound 10 µM, first compound 10 µM) of 1.44%.

Work on CCN1CCN(Cc2ccc(Nc3ncc(F)c(-c4cc(F)c5nc(C)n(C(C)C)c5c4)n3)nc2)CC1 + C#Cc1c(F)ccc2cc(O)cc(-c3ncc4c(N5CC6CCC(C5)N6)nc(OCC56CCCN5CC(F)C6)nc4c3F)c12 yielded a pIC50 (second compound 0.0316 µM) of 8.10, a pIC50 (second compound 0.1 µM) of 7.52 and a pIC50 (second compound 0.316 µM) of 7.74. For the same compound, the pIC50 (second compound 1 µM) was 7.91, the pIC50 (second compound 3.16 µM) was 7.99 and the pIC50 (second compound 10 µM) was > 8.50. The viability, T/C (second compound 0.0316 µM, first compound 0.00316 µM) was 66.8%, the viability, T/C (second compound 0.0316 µM, first compound 0.01 µM) was 38.2% and the viability, T/C [1] was 41.9%. For the same compound, the viability, T/C [2] was 25.9%, the viability, T/C [3] was 18% and the viability, T/C [4] was 16.3%. For the same compound, the viability, T/C (second compound 0.1 µM, first compound 0.00316 µM) was 76.2%, the viability, T/C (second compound 0.1 µM, first compound 0.01 µM) was 77.7% and the viability, T/C [5] was 47.6%. It also gave a viability, T/C [6] of 25.7%, a viability, T/C [7] of 22% and a viability, T/C [8] of 14.4%. It also gave a viability, T/C (second compound 0.316 µM, first compound 0.00316 µM) of 78.2%, a viability, T/C (second compound 0.316 µM, first compound 0.01 µM) of 59.9% and a viability, T/C [9] of 40.8%. It also gave a viability, T/C [10] of 28.9%, a viability, T/C [11] of 24.4% and a viability, T/C [12] of 16.2%. It also gave a viability, T/C (second compound 1 µM, first compound 0.00316 µM) of 79.4%, a viability, T/C (second compound 1 µM, first compound 0.01 µM) of 49.6% and a viability, T/C [13] of 37.8%. For the same compound, the viability, T/C [14] was 33.5%, the viability, T/C [15] was 20.5% and the viability, T/C [16] was 19.9%. It also gave a viability, T/C (second compound 3.16 µM, first compound 0.00316 µM) of 74.1%, a viability, T/C (second compound 3.16 µM, first compound 0.01 µM) of 51.3% and a viability, T/C [17] of 32.8%. The viability, T/C [18] was 29.1%, the viability, T/C [19] was 30.4% and the viability, T/C [20] was 16.6%. It also gave a viability, T/C (second compound 10 µM, first compound 0.00316 µM) of 26.7%, a viability, T/C (second compound 10 µM, first compound 0.01 µM) of 37.7% and a viability, T/C [21] of 14.3%. The viability, T/C [22] was 12.5%, the viability, T/C [23] was 5.58% and the viability, T/C [24] was 2.78%.
